In patent publication US8198217B2, “Composition for weeding” (Kumiai Chemical Industry Co., Ltd., priority 2007, dated 2012):

What was measured:
early watergrass (ECHOR) = test: Weed control effect test on paddy fields; assay type: in vivo, Echinochloa oryzicola; conditions: applied onto water surface, 25th day from treatment
Text: (§1) A plastic pot of 1/20000 are area was each filled with a paddy field soil which was manured and shuffled followed by sowing of the respective seeds of early watergrass (ECHOR), heartshape false pickerelweed (MOOVA), rock's bulrush (SCIJO) and marsh dayflower (ANEKE) and burying of tuberous roots of tidalmarsh flatsedge (CYPSE) followed by pooling of water in a water depth of 1 cm. And, paddy rice plants (Or) at the two-leaves stage were transplanted to the same pot and grown in a greenhouse. Thereafter, on the day when the early watergrass had reached its 2.5 leaves stage, pooling of water was undertaken in order to make the water depth to 3 cm and agents each prepared by dilution of a specified amount of the wettable powder prepared in the same manner as in Example 1 and 2 with water was applied onto the water surface, respectively. Then, growing was continued keeping the pooling water depth of 3 cm to record the weed control effect and the extent of phytotoxicity on the 25th day from the treatment as indexes according to the criteria given in Table 1. The dosages are given in terms of the amount of the active ingredients per 10 ares area.

[1] = system: tidalmarsh flatsedge (CYPSE); test: Weed control effect test on paddy fields; assay type: in vivo, Cyperus serotinus; conditions: applied onto water surface, 25th day from treatment
Text: as §1

marsh dayflower (ANEKE) = test: Weed control effect test on paddy fields; assay type: in vivo; conditions: applied onto water surface, 25th day from treatment
Text: as §1

[2] = system: pitted morningglory (IPOLA); test: Weed control effect test by stems-and-leaves treatment; assay type: in vivo; conditions: 30th day from treatment
Procedure: (§2) A plastic pot of 1/2000 are area was each filled with a dry-field soil where the respective seeds of corn (ZEAMX), pitted morningglory (IPOLA), velvet leaf (ABUTH) and lamb's-quarters (CHEAL) were sowed and tuberous roots of yellow nutsedge (CYPES) were buried followed by pooling of water from the bottom part of the pot. These seeds and tuberous roots were grown in a greenhouse. On the day when the pitted morningglory had reached its 4 leaves stage, a stems-and-leaves treatment was undertaken on the whole plant bodies with agents each prepared by dilution of a specified amount of the water-dispersible granules prepared in the same manner as in Example 3, 4 and 5 with water, respectively. Thereafter, growing was continued in the glasshouse to record the weed control effect and the extent of phytotoxicity on the 30th day from the treatment as indexes according to the criteria given in Table 1. The dosages are given in terms of the amount of the active ingredients per hectare (ha).

velvet leaf (ABUTH) = test: as above; assay type: in vivo; conditions: 30th day from treatment
Procedure: as §2

yellow nutsedge (CYPES) = test: as above; assay type: in vivo; conditions: 30th day from treatment
Procedure: as §2

lamb's-quarters (CHEAL) = test: as above; assay type: in vivo; conditions: 30th day from treatment
Procedure: as §2

[3] = system: heartshape false pickerelweed (MOOVA); test: Weed control effect test on paddy fields; assay type: in vivo, Monochoria vaginalis; conditions: applied onto water surface, 25th day from treatment
Text: as §1

paddy rice plants (Or) = test: Weed control effect test on paddy fields: phytotoxicity to paddy rice; assay type: in vivo; conditions: applied onto water surface, 25th day from treatment
Text: as §1

corn (ZEAMX) = test: Weed control effect test by stems-and-leaves treatment: phytotoxicity to corn; assay type: in vivo; conditions: 30th day from treatment
Procedure: as §2, with “On the day when the pitted morningglory had reached its 4 leaves stage, a stems-and-leaves treatment was undertaken on the whole plant bodies with agents each prepared by dilution of a specified amount of the water-dispersible granules prepared in the same manner as in Example 3, 4 and 5 with water, respectively.” left out

rock's bulrush (SCIJO) = test: Weed control effect test on paddy fields; assay type: in vivo, Scirpus juncoides; conditions: applied onto water surface, 25th day from treatment
Text: as §1

## COCc1cccc(C(O)c2nc(OC)cc(OC)n2)c1NS(=O)(=O)C(F)F (stereo not shown) [Compound A-1, 2-[(4,6-dimethoxypyrimidin-2-yl)hydroxymethyl]-6-methoxymethyl-N-difluoromethanesulfonylanilide]
Early watergrass (ECHOR); 3 g a.i./10a
  weed control effect index, ECHOR: 7 (not less than 65% but less than 75% growth inhibition)
[1]; 3 g a.i./10a
  weed control effect index, CYPSE: 8 (not less than 75% but less than 85% growth inhibition)
Marsh dayflower (ANEKE); 3 g a.i./10a
  weed control effect index, ANEKE: 2 (not less than 15% but less than 25% growth inhibition)
[2]; 10 g a.i./ha
  weed control effect index, IPOLA: 6 (not less than 55% but less than 65% growth inhibition)
Velvet leaf (ABUTH); 10 g a.i./ha
  weed control effect index, ABUTH: 5 (not less than 45% but less than 55% growth inhibition)
Yellow nutsedge (CYPES); 10 g a.i./ha
  weed control effect index, CYPES: 7 (not less than 65% but less than 75% growth inhibition)
lamb's-quarters (CHEAL); 10 g a.i./ha
  weed control effect index, CHEAL: 1 (not less than 5% but less than 15% growth inhibition)
[3]; 3 g a.i./10a
  weed control effect index, MOOVA: 7 (not less than 65% but less than 75% growth inhibition)
Paddy rice plants (Or); 3 g a.i./10a
  extent of phytotoxicity index, OR: 0 (less than 5% growth inhibition)
Corn (ZEAMX); 10 g a.i./ha
  extent of phytotoxicity index, ZEAMX: 0 (less than 5% growth inhibition)
rock's bulrush (SCIJO); 3 g a.i./10a
  weed control effect index, SCIJO: 8 (not less than 75% but less than 85% growth inhibition)

## CCCc1ccc2nc(Cl)c(S(=O)(=O)NC(=O)Nc3nc(OC)cc(OC)n3)n2n1 [TH-547, 1-(2-chloro-6-propylimidazo[1,2-b]pyridazin-3-ylsulfonyl)-3-(4,6-dimethoxypyrimidin-2-yl)urea]
Early watergrass (ECHOR); 7 g a.i./10a
  weed control effect index, ECHOR: 7 (not less than 65% but less than 75% growth inhibition)
[1]; 7 g a.i./10a
  weed control effect index, CYPSE: 6 (not less than 55% but less than 65% growth inhibition)
Marsh dayflower (ANEKE); 7 g a.i./10a
  weed control effect index, ANEKE: 4 (not less than 35% but less than 45% growth inhibition)
[3]; 7 g a.i./10a
  weed control effect index, MOOVA: 7 (not less than 65% but less than 75% growth inhibition)
Paddy rice plants (Or); 7 g a.i./10a
  extent of phytotoxicity index, OR: 0 (less than 5% growth inhibition)
rock's bulrush (SCIJO); 7 g a.i./10a
  weed control effect index, SCIJO: 6 (not less than 55% but less than 65% growth inhibition)

## CCNc1nc(Cl)nc(NC(C)C)n1 [atrazine]
[2]; 1000 g a.i./ha
  weed control effect index, IPOLA: 3 (not less than 25% but less than 35% growth inhibition)
Velvet leaf (ABUTH); 1000 g a.i./ha
  weed control effect index, ABUTH: 3 (not less than 25% but less than 35% growth inhibition)
Yellow nutsedge (CYPES); 1000 g a.i./ha
  weed control effect index, CYPES: 3 (not less than 25% but less than 35% growth inhibition)
lamb's-quarters (CHEAL); 1000 g a.i./ha
  weed control effect index, CHEAL: 8 (not less than 75% but less than 85% growth inhibition)
Corn (ZEAMX); 1000 g a.i./ha
  extent of phytotoxicity index, ZEAMX: 0 (less than 5% growth inhibition)

## COC(=O)CSc1cc(/N=c2\sc(=O)n3n2CCCC3)c(F)cc1Cl [fluthiacet-methyl]
[2]; 5 g a.i./ha
  weed control effect index, IPOLA: 3 (not less than 25% but less than 35% growth inhibition)
Velvet leaf (ABUTH); 5 g a.i./ha
  weed control effect index, ABUTH: 9 (not less than 85% but less than 95% growth inhibition)
Yellow nutsedge (CYPES); 5 g a.i./ha
  weed control effect index, CYPES: 2 (not less than 15% but less than 25% growth inhibition)
lamb's-quarters (CHEAL); 5 g a.i./ha
  weed control effect index, CHEAL: 8 (not less than 75% but less than 85% growth inhibition)
Corn (ZEAMX); 5 g a.i./ha
  extent of phytotoxicity index, ZEAMX: 0 (less than 5% growth inhibition)

## CCC1(CC2(c3cccc(Cl)c3)CO2)C(=O)c2ccccc2C1=O (stereo not shown) [indanofan]
Early watergrass (ECHOR); 15 g a.i./10a
  weed control effect index, ECHOR: 6 (not less than 55% but less than 65% growth inhibition)
[1]; 15 g a.i./10a
  weed control effect index, CYPSE: 1 (not less than 5% but less than 15% growth inhibition)
Marsh dayflower (ANEKE); 15 g a.i./10a
  weed control effect index, ANEKE: 5 (not less than 45% but less than 55% growth inhibition)
[3]; 15 g a.i./10a
  weed control effect index, MOOVA: 5 (not less than 45% but less than 55% growth inhibition)
rock's bulrush (SCIJO); 15 g a.i./10a
  weed control effect index, SCIJO: 3 (not less than 25% but less than 35% growth inhibition)

## COc1cc(OC)nc(NC(=O)NS(=O)(=O)c2ncccc2C(=O)N(C)C)n1 [nicosulfuron]
[2]; 35 g a.i./ha
  weed control effect index, IPOLA: 3 (not less than 25% but less than 35% growth inhibition)
Velvet leaf (ABUTH); 35 g a.i./ha
  weed control effect index, ABUTH: 2 (not less than 15% but less than 25% growth inhibition)
Yellow nutsedge (CYPES); 35 g a.i./ha
  weed control effect index, CYPES: 4 (not less than 35% but less than 45% growth inhibition)
lamb's-quarters (CHEAL); 35 g a.i./ha
  weed control effect index, CHEAL: 8 (not less than 75% but less than 85% growth inhibition)
Corn (ZEAMX); 35 g a.i./ha
  extent of phytotoxicity index, ZEAMX: 0 (less than 5% growth inhibition)
